Earlier results on one compound are cited in patent US9840652B2, “Water-based drilling fluid with cyclodextrin shale stabilizer” (Halliburton Energy Services, Inc., priority 2012, dated 2017).

A value given as a limit tells only on which side of the number the result lay.

In data set [1] the test system is Cyprinus carpio (common carp).

Take `OC[C@H]1O[C@@H]2O[C@H]3[C@H](O)[C@@H](O)[C@@H](O[C@H]4[C@H](O)[C@@H](O)[C@@H](O[C@H]5[C@H](O)[C@@H](O)[C@@H](O[C@H]6[C@H](O)[C@@H](O)[C@@H](O[C@H]7[C@H](O)[C@@H](O)[C@@H](O[C@H]8[C@H](O)[C@@H](O)[C@@H](O[C@H]1[C@H](O)[C@H]2O)O[C@@H]8CO)O[C@@H]7CO)O[C@@H]6CO)O[C@@H]5CO)O[C@@H]4CO)O[C@@H]3CO` [β-cyclodextrin]: the “96-hr LC50” value in data set [1] was 7561 µg/mL. Also, the “48-hr EC50” value in the data set on Daphnia magna is > 100 µg/mL. Further, in the data set with desmodesmus subspicatus, the “72-hr density EC50” value was > 100 µg/mL.
